According to patent US12637414B2, “Arylamides and methods of use thereof” (Genzyme Corporation, priority 2019, dated 2026):

Biological target: T1, human Cystic Fibrosis Transmembrane Conductance Regulator (CFTR) harboring the ΔF508 mutation (Homo sapiens, UniProt P13569, DEL508-508)
T1 construct: expressed in transfected cells; host or cells: H441 carcinoma line (G418 selection)
Assay: H441 cell Emax and EC50: HRP-tagged ΔF508-CFTR cell surface luminescence assay
Format: cell-based
Conditions: H441 cells expressing ΔF508-CFTR-HRP, 27° C., two nights; for EC50: 15-point dose-response, top 24.5 μM; for Emax: NCI-H441, % of maximum VX809 signal
Excerpt: Two cell lines were used, the H441 carcinoma line and the CFHBE41o-(41o-) human bronchial epithelial line. Both cell lines expressed human Cystic Fibrosis Transmembrane Conductance Regulator (CFTR) harboring the ΔF508 mutation and with an in-frame fusion in CFTR extracellular loop 4 of Horse Radish Peroxidase (HRP) under control of the CMV promoter. In the presence of the HRP tag, ΔF508-CFTR transported to the cell surface was detectable upon addition of an HRP substrate (Luminata Forte). Both cell types were cultivated at 37° C. with CO2.
For both cell types, the medium was changed every other day unless the culture was at low % confluence. Cells were used for the assays at ˜75% confluence.
To a polypropylene (PP) 384-well plate, 15 μls DMSO was added to all wells in columns 1-22 and 24 (low Control). 15 μls of 260 μM VX809 (Lumacaftor), Selleckchem S1565, was added to column 23 wells (high Control). 15 μls of 10 mM test compound or VX809 (control) were added to wells of row A. Serial dilutions of Row A compound were performed 2×15 μls in rows A through O (15-point).
A PP, 384-well plate containing the appropriate cell culture medium was prepared for each assay plate with 100 μls per well. For the doxycycline-induced 41o-cells, doxycycline for both the assay plate and the medium dilution plate was added at 0.0005 mg/ml to the medium.
Both cell lines were plated for the assay at 30 uls per 384-well at 3.4×10^e5 cells per ml (˜10K cells/well). H441 cells were plated on opaque, white, Corning plate 3704. 41o-cells were plated on collagen-coated opaque, white, Corning plate 356665. For 41o-cells, doxycycline was added to the medium.
Using FX (Beckman) protocol, 10 uls diluted compound or medium was added per well to the Assay Plate as: 2 μls DMSO Dilution plate well is diluted in 100 uls of the Medium Dilution Plate well, mixed, and 10 uls is transferred to the Assay Plate.
The final assay dilution series is 24.5, 12.3, 6.1, 3.1, 1.5, 0.8, 0.4, 0.2, 0.1, 0.05, 0.02, 0.01, 0.006, 0.003, 0.001 and 0 μM. The 41o-assay plates were incubated at 37° C. w/CO2, the H441 assay plates were incubated at 27° C. w/CO2, each overnight for two nights.
After being brought to room temperature, the assay plate liquid was removed. 30 μls of Luminata Forte (Millipore ELLUF0100) was added per well and incubated at room temperature for 10 min. The plates were then read on a Topcount, protocol LumiMatti (CPS, luminescence). The data was analyzed for % of maximum, maximum VX809 signal, and EC50 using Pearl and SPEED tools.

T1 sequence (P13569 with tags, fused parts or gaps DEL508-508): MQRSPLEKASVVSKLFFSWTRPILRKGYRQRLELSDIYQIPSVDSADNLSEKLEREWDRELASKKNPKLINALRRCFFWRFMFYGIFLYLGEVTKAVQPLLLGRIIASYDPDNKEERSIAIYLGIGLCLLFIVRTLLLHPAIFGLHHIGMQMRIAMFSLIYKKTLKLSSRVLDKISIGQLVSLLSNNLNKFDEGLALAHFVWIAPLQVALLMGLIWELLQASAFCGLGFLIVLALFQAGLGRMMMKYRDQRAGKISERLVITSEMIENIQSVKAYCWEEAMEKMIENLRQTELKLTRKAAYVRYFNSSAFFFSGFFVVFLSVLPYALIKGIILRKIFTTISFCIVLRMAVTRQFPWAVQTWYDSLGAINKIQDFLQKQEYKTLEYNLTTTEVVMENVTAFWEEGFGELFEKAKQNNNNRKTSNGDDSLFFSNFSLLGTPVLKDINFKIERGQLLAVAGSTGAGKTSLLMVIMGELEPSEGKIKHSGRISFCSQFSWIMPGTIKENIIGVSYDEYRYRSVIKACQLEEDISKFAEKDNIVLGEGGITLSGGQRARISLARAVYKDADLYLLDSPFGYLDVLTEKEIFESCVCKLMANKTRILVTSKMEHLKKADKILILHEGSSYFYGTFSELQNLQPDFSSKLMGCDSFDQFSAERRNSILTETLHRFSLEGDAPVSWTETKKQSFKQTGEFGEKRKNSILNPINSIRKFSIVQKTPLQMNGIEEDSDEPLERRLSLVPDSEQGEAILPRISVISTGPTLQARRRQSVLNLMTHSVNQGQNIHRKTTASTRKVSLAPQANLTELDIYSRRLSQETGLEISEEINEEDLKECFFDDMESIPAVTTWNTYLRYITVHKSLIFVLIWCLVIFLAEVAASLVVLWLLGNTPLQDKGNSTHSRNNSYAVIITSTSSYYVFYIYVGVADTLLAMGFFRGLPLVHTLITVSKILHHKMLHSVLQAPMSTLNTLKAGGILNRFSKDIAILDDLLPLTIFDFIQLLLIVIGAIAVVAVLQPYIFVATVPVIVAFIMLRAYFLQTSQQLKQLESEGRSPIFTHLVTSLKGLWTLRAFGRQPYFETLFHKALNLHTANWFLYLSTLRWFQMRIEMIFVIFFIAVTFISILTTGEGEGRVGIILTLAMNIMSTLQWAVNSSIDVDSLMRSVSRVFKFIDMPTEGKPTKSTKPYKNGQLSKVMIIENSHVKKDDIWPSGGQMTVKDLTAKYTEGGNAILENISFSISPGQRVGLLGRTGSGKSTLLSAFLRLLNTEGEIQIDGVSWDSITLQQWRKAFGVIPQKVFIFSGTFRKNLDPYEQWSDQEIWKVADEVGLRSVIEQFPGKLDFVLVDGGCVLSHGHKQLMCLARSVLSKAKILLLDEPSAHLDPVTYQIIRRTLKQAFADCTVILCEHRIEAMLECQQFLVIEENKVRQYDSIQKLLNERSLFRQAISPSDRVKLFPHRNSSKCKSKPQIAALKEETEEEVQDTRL

| SMILES | EC50 [nM] | Emax [%] |
| --- | --- | --- |
| O=C(N[C@H](C(=O)O)C12CC3CC(CC(C3)C1)C2)c1sc2cc(Cl)ccc2c1OCc1ccc(C(F)(F)F)cc1 [compound 32] | 396 | 105 |
| CC(C)OC12CC3CC(C1)CC([C@H](NC(=O)c1ccc4ccccc4c1OCc1ccc(C(F)(F)F)cc1)C(=O)O)(C3)C2 [compound 11] | 401 | 157 |
| O=C(N[C@H](C(=O)O)C12CC3CC(CC(C3)C1)C2)c1ccc2cc(F)ccc2c1OCc1ccc(S(F)(F)(F)(F)F)cc1 [compound 56] | 236 | 89.7 |
| O=C(N[C@H](C(=O)O)C12CC3CC(CC(O)(C3)C1)C2)c1ccc2cc(F)ccc2c1OCc1ccc(C(F)(F)F)cc1 [compound 33] | 755 | 100 |
| O=C(N[C@H](C(=O)O)C12CC3CC(CC(Br)(C3)C1)C2)c1ccc2cccnc2c1OCc1ccc(C(F)(F)F)cc1 [compound 67] | 879 | 134 |
| CCOC(=O)[C@H](C)OC12CC3CC(C1)CC([C@H](NC(=O)c1ccc4cc(F)ccc4c1OCc1ccc(C(F)(F)F)cc1)C(=O)O)(C3)C2 [compound 87] | 287 | 96.2 |
| O=C(N[C@H](C(=O)O)C12CC3CC(CC(O)(C3)C1)C2)c1ccc2cccnc2c1OCC1CCC(F)(F)CC1 [compound 60] | 11600 | 73.1 |
| O=C(N[C@H](C(=O)O)C12CC3CC(CC(C3)C1)C2)c1ccc2occc2c1OCc1ccc(Cl)c(Cl)c1 [compound 120, (2S)-2-(1-adamantyl)-2-[[4-[(3,4-dichlorophenyl)methoxy]benzofuran-5-carbonyl]amino]acetic acid] | 265 | 141 |
| O=C(O)[C@@H](n1c(=O)c2ccc3ccccc3c2n(Cc2ccc(C(F)(F)F)cc2)c1=O)C12CC3CC(CC(C3)C1)C2 [compound 137, (2S)-2-(1-adamantyl)-2-[2,4-dioxo-1-[[4-(trifluoromethyl)phenyl]methyl]benzo[h]quinazolin-3-yl]acetic acid] | 1600 | 5.3 |
| CCOC12CC3CC(C1)CC([C@H](NC(=O)c1ccc4ccccc4c1OCc1ccc(C(F)(F)F)cc1)C(=O)O)(C3)C2 [compound 27] | 153 | 215 |
| CC(C)OC(=O)[C@@H](NC(=O)c1ccc2cccnc2c1OCc1ccc(C(F)(F)F)cc1)C12CC3CC(CC(C3)C1)C2 [compound 69] | ≥ 24500 | 28.9 |
| O=C(N[C@H](C(=O)O)C12CC3CC(CC(C3)C1)C2)c1ccc2sccc2c1OCC1CCCCC1 [compound 104, (2S)-2-(1-adamantyl)-2-[[4-(cyclohexylmethoxy)benzothiophene-5-carbonyl]amino]acetic acid] | 1230 | 228 |
| O=C(N[C@H](C(=O)O)C12CC3(Cl)CC(Cl)(CC(Cl)(C3)C1)C2)c1ccc2ccccc2c1NCc1ccc(SC(F)(F)F)cc1 [compound 127, (2S)-2-(3,5,7-trichloro-1-adamantyl)-2-[[1-[[4-(trifluoromethylsulfanyl)phenyl]methylamino]naphthalene-2-carbonyl]amino]acetic acid] | 625 | 75.5 |
| O=C(N[C@H](C(=O)O)C12CC3CC(CC(O)(C3)C1)C2)c1ccc2cc(F)ccc2c1OCC1CCC(F)(F)CC1 [compound 21] | 4060 | 32.5 |
| O=C(N[C@H](C(=O)O)C12CC3CC(CC(C3)C1)C2)c1ccc2ccccc2c1OCC1CCCCC1 [compound 52] | 903 | 171 |
| O=C(N[C@H](C(=O)O)C12CC3CC(CC(O)(C3)C1)C2)c1ccc2sccc2c1OCC1CCC(F)(F)CC1 [compound 108, (2S)-2-[[4-[(4,4-difluorocyclohexyl)methoxy]benzothiophene-5-carbonyl]amino]-2-(3-hydroxy-1-adamantyl)acetic acid] | 11400 | 78.4 |
| CS(=O)(=O)c1ccc(COc2c(C(=O)N[C@H](C(=O)O)C34CC5CC(CC(C5)C3)C4)ccc3ccccc23)cc1 [compound 58] | 15800 | 30.1 |
| O=C(N[C@H](C(=O)O)C12CC3CC(CC(O)(C3)C1)C2)c1ccc2sccc2c1OCc1ccc(C(F)(F)F)cc1 [compound 105, (2S)-2-(3-hydroxy-1-adamantyl)-2-[[4-[[4-(trifluoromethyl)phenyl]methoxy]benzothiophene-5-carbonyl]amino]acetic acid] | 3550 | 150 |

Further lines, results first:

| EC50 [nM] | Emax [%] | SMILES |
| --- | --- | --- |
| 172 | 160 | O=C(N[C@H](C(=O)O)C12CC3CC(CC(C3)C1)C2)c1ccn2cccc2c1OCc1ccc(C(F)(F)F)cc1 [compound 117, (2S)-2-(1-adamantyl)-2-[[8-[[4-(trifluoromethyl)phenyl]methoxy]indolizine-7-carbonyl]amino]acetic acid] |
| 201 | 304 | CC12CC3(C)CC(C)(C1)CC(C(NC(=O)c1ccc4ccccc4c1OCc1ccc(OC(F)(F)F)cc1)C(=O)O)(C2)C3 (centres unmarked) [compound 82] |
| 489 | 264 | Cc1ccc2ccc(C(=O)N[C@H](C(=O)O)C34CC5CC(CC(C5)C3)C4)c(OCc3ccc(OC(F)(F)F)cc3)c2c1 [compound 34] |
| 1030 | 137 | O=C(NC(C(=O)O)C12CC3CC(CC(O)(C3)C1)C2)c1ccc2ccccc2c1OCc1ccc(C(F)(F)F)cc1 (centres unmarked) [compound 79] |
| 2160 | 102 | CS(=O)(=O)CCOC12CC3CC(C1)CC([C@H](NC(=O)c1ccc4cc(F)ccc4c1OCc1ccc(C(F)(F)F)cc1)C(=O)O)(C3)C2 [compound 39] |
| 398 | 180 | O=C(N[C@H](C(=O)O)C12CC3CC(CC(C3)C1)C2)c1ccc2ccccc2c1OCc1ccc(C(F)(F)F)cc1 [compound 96, (2S)-2-(1-adamantyl)-2-[[1-[[4-(trifluoromethyl)phenyl]methoxy]naphthalene-2-carbonyl]amino]acetic acid] |
| 441 | 110 | O=C(NC(C(=O)O)C12CC3CC(CC(OCC(Cl)Cl)(C3)C1)C2)c1ccc2cc(F)ccc2c1OCc1ccc(C(F)(F)F)cc1 (centres unmarked) [compound 91] |
| 1600 | 206 | O=C(N[C@H](C(=O)O)C12CC3CC(CC(C3)C1)C2)c1ccc2cccnc2c1OCc1nc2ccccc2s1 [compound 51] |
| 153 | 147 | O=C(N[C@H](C(=O)O)C12CC3CC(CC(Br)(C3)C1)C2)c1ccc2ccccc2c1OCc1ccc(C(F)(F)F)cc1 [compound 54] |
| 1320 | 118 | O=C(N[C@H](C(=O)O)C12CC3CC(CC(C3)C1)C2)c1ccc2ccccc2c1OCc1ccc([N+](=O)[O-])cc1 [compound 73] |
| 2880 | 55.8 | O=C(N[C@H](C(=O)O)C12CC3CC(CC(C3)C1)C2)c1ccc2ccccc2c1OCc1nc(C(F)(F)F)cs1 [compound 100, (2S)-2-(1-adamantyl)-2-[[1-[[4-(trifluoromethyl)thiazol-2-yl]methoxy]naphthalene-2-carbonyl]amino]acetic acid] |
| ≥ 24500 | 29.9 | COC(=O)[C@@H](NC(=O)c1ccc2ccccc2c1OCc1ccc(C(F)(F)F)cc1)C12CC3CC(CC(O)(C3)C1)C2 [compound 14] |
| 2700 | 145 | O=C(N[C@H](C(=O)O)C12CC3CC(CC(C3)C1)C2)c1ccc2ccccc2c1OCC#CC1CC1 [compound 101, (2S)-2-(1-adamantyl)-2-[[1-(3-cyclopropylprop-2-ynoxy)naphthalene-2-carbonyl]amino]acetic acid] |
